According to patent US8975398B2, “NAMPT inhibitors” (AbbVie Inc., priority 2012, dated 2015):

Assays:
[1] = molecular target: NAMPT (human, recombinant, C-terminally His-tagged) (Homo sapiens, UniProt P43490); test: Time-Resolved Fluorescence Resonance Energy Transfer (TR-FRET) Binding Assay of NAMPT; details: 6.8 nM NAMPT, 200 nM probe, equilibrated 3 hours, absence of substrates
Summary of the method: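 Recombinant C-terminally His-tagged human NAMPT (6.8 nM) incubated 3 h at room temperature with 200 nM Oregon Green 488–labelled nicotinamide-competitive probe and 1 nM Tb-anti-His antibody in HEPES pH 7.5, 2% DMSO. TR-FRET ratio Em520/Em495 normalized to controls; IC50 from four-parameter logistic fit.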

[2] = molecular target: NAMPT (Homo sapiens, UniProt P43490); test: Time-Resolved Fluorescence Resonance Energy Transfer (TR-FRET) Binding Assay of NAMPT with PRPP; details: 2 nM NAMPT, 2 nM probe, 200 uM PRPP and 2.5 mM ATP, equilibrated 16 hours
Summary of the method: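 Final mix: 2 nM NAMPT, 2 nM probe, 1 nM Tb-anti-His antibody, 200 uM PRPP, 2.5 mM ATP, 2% DMSO in 1× assay buffer. Equilibrated 16 hours before TR-FRET read, allowing possible enzymatic modification of compounds.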

Chain of NAMPT (human, recombinant, C-terminally His-tagged) (P43490 whole entry): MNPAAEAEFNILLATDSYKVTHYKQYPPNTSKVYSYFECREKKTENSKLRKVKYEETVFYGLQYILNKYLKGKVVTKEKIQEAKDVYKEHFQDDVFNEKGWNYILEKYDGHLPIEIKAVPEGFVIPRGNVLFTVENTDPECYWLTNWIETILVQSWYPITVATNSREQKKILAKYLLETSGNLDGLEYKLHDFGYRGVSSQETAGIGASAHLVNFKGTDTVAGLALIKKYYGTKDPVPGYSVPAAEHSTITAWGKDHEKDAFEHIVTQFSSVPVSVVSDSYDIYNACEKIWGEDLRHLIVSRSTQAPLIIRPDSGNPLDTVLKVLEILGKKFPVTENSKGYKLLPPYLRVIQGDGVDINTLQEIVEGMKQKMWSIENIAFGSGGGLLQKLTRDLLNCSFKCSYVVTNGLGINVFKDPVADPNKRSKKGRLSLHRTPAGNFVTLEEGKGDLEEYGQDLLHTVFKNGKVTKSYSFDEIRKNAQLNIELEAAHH
Chain of NAMPT (P43490 whole entry): as above

IC50 [1] [nM] | IC50 [2] [nM] | Compound
31.9 | 0.801 | O=C(Nc1ccc(OC2CCN(C(=O)c3ccccc3Cl)CC2)cc1)C1CN(c2cccnn2)C1 [Example 211, N-(4-{[1-(2-chlorobenzoyl)piperidin-4-yl]oxy}phenyl)-1-(pyridazin-3-yl)azetidine-3-carboxamide]
1410 | 0.902 | CCCC(C)CN1CCC(c2ccc(NC(=O)C3CN(c4cccnc4)C3)cc2)CC1 (centres unmarked) [Example 90, N-{4-[1-(2-methylpentyl)piperidin-4-yl]phenyl}-1-(pyridin-3-yl)azetidine-3-carboxamide]
3840 | 3.08 | O=C(Nc1ccc(OC2CCN(C(=O)[C@H]3CCCO3)CC2)cc1)[C@H]1CCN(c2cccnc2)C1 [Example 14, (3S)-1-(pyridin-3-yl)-N-[4-({1-[(2R)-tetrahydrofuran-2-ylcarbonyl]piperidin-4-yl}oxy)phenyl]pyrrolidine-3-carboxamide]
987 | 124 | Cc1ncccc1N1CC(C(=O)Nc2ccc(C3CCN(C(=O)CN4CCOCC4)CC3)cc2)C1 [Example 164, 1-(2-methylpyridin-3-yl)-N-{4-[1-(morpholin-4-ylacetyl)piperidin-4-yl]phenyl}azetidine-3-carboxamide]
1040 | 185 | COCCOCC(=O)N1CCC(c2ccc(NC(=O)C3CN(c4cccnc4C)C3)cc2)CC1 [Example 183, N-(4-{1-[(2-methoxyethoxy)acetyl]piperidin-4-yl}phenyl)-1-(2-methylpyridin-3-yl)azetidine-3-carboxamide]
992 | 0.868 | CCCCN1CCC(c2ccc(NC(=O)C3CN(c4cccnc4)C3)cc2)CC1 [Example 91, N-[4-(1-butylpiperidin-4-yl)phenyl]-1-(pyridin-3-yl)azetidine-3-carboxamide]
55.1 | 1.24 | CC(=O)N[C@@H](CC(C)C)C(=O)N1CCC(c2ccc(NC(=O)C3CN(c4cccnn4)C3)cc2)CC1 [Example 385, N-{4-[1-(N-acetyl-L-leucyl)piperidin-4-yl]phenyl}-1-(pyridazin-3-yl)azetidine-3-carboxamide]
62.4 | 38.2 | O=C(Nc1ccc(OC2CCN(C(=O)c3ccc(F)cc3F)CC2)cc1)C1CN(c2ccnnc2)C1 [Example 284, N-(4-{[1-(2,4-difluorobenzoyl)piperidin-4-yl]oxy}phenyl)-1-(pyridazin-4-yl)azetidine-3-carboxamide]
21.3 | 0.869 | Cc1ccc(C)c(C(=O)N2CCC(c3ccc(NC(=O)C4CN(c5cccnn5)C4)cc3)CC2)c1 [Example 359, N-{4-[1-(2,5-dimethylbenzoyl)piperidin-4-yl]phenyl}-1-(pyridazin-3-yl)azetidine-3-carboxamide]
231 | 45.1 | O=C(Nc1ccc(OC2CCN(C(=O)Cc3ccc(OC(F)(F)F)cc3)CC2)cc1)C1CN(c2ccnnc2)C1 [Example 275, 1-(pyridazin-4-yl)-N-{4-[(1-{[4-(trifluoromethoxy)phenyl]acetyl}piperidin-4-yl)oxy]phenyl}azetidine-3-carboxamide]
16.5 | 0.486 | O=C(Nc1ccc(C2CCN(C(=O)CC3CCCC3)CC2)cc1)C1CN(c2cccnc2)C1 [Example 101, N-{4-[1-(cyclopentylacetyl)piperidin-4-yl]phenyl}-1-(pyridin-3-yl)azetidine-3-carboxamide]
141 | 86.7 | CC(C)(O)C(=O)N1CC(Oc2ccc(NC(=O)C3CN(c4ccnnc4)C3)cc2)C1 [Example 207, N-(4-{[1-(2-hydroxy-2-methylpropanoyl)azetidin-3-yl]oxy}phenyl)-1-(pyridazin-4-yl)azetidine-3-carboxamide]
16.6 | 0.633 | Cc1cc(C)cc(CC(=O)N2CCC(c3ccc(NC(=O)C4CN(c5cccnn5)C4)cc3)CC2)c1 [Example 372, N-(4-{1-[(3,5-dimethylphenyl)acetyl]piperidin-4-yl}phenyl)-1-(pyridazin-3-yl)azetidine-3-carboxamide]
